# Reference: paper PMC13652807, “A co-evolved peptide-GPCR system senses host entry to drive fungal infection” (Nature Communications, 2026)
# Positions count from the first letter of the chain named. Where a SMILES comes first, the peptide text is derived from it.
# Key:
# [1] = target: T1, Gpe1R133A (Mycosarcoma maydis, UniProt A0A0D1E6B3, R133A); assay: Dose-response in yeast reporter assay, Gpe1 R133A; assay type: cell-based, Ustilago maydis; settings: Fig. 4e; receptor variant R133A
# T1 construct: expressed in transfected cells; host or cells: Saccharomyces cerevisiae reporter strain, plasmid pIL0373 (made from pIL0186)
# T1 sequence (A0A0D1E6B3 1-435 R133A): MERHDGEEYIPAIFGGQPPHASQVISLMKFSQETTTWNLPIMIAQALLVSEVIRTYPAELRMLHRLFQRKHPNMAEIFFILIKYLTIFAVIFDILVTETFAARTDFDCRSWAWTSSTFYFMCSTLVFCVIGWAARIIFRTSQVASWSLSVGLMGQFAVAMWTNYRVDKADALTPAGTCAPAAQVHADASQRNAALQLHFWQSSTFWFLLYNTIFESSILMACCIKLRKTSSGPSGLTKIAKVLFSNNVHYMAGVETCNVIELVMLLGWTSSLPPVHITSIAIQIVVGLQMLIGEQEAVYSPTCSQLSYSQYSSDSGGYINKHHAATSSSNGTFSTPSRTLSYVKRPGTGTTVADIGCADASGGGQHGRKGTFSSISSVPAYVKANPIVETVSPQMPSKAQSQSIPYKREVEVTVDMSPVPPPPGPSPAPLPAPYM
# Protocol: (§1) To test the functional relevance of this putative TM3–TM6 activation module, we generated Gpe1 variants targeting R133 and the adjacent TM6 residues N246 and N247 (Supplementary Fig. 5). Gpe1 variant activation was analyzed by the yeast reporter system. […] However, reduced activity of individual variants may also reflect effects on receptor stability or intracellular trafficking competence.
# (§2) For the plasmid constructions, standard molecular cloning strategies and techniques were applied. For GPCR expression in S. cerevisiae, the ScSte2 expression vector pRS416[22] was digested with SpeI and XhoI to remove the ScSte2 gene. The pure backbone vector was used for classical restriction-ligation (T4 ligase) to clone the GPCR genes inside using unique restriction sites (SpeI and XhoI) added in the PCR gene amplification. For plasmid amplification, recombinant plasmids were transformed in chemically competent E. coli Top10 cells. […]
# (§3) For dose response curves, 9 different concentrations (15 μM and […] five-fold dilutions starting at 8 μM peptide, sterile water was used as no peptide control) of the specific synthetic peptide were used. Experiments were performed in 96-well microtiter plates using a microplate reader (Tecan), and OD600 and red fluorescence were measured after 20 h. […]
# [2] = target: T2, Gpe1N246D+N247G (Mycosarcoma maydis, UniProt A0A0D1E6B3, N246D/N247G); assay: Dose-response in yeast reporter assay, Gpe1 N246D+N247G; assay type: cell-based, Ustilago maydis; settings: Fig. 4e; receptor variant N246D+N247G; read-out: apparent EC50
# T2 construct: expressed in transfected cells; host or cells: Saccharomyces cerevisiae reporter strain, plasmid pIL0351 (made from pIL0186)
# T2 sequence (A0A0D1E6B3 1-435 N246D/N247G): T1 sequence (A0A0D1E6B3 1-435 R133A) with A133R, N246D, N247G
# Protocol: as §1, §2, §3
# [3] = target: T3, wild-type Gpe1 (Mycosarcoma maydis, UniProt A0A0D1E6B3); assay: Dose-response of synthetic peptide in yeast reporter assay, wild-type Gpe1; assay type: cell-based, Ustilago maydis; settings: for EC50: 9 concentrations up to 15 µM, fluorescence after 20 h, four-parameter fit, Fig. 2b/2d, mean of three independent biological experiments
# T3 construct: expressed in transfected cells; host or cells: Saccharomyces cerevisiae JTy014-derived reporter strain, plasmid pIL0186 (pRS416 backbone)
# T3 sequence (A0A0D1E6B3 1-435): T1 sequence (A0A0D1E6B3 1-435 R133A) with A133R
# Protocol: Experiments were performed in 96-well microtiter plates using a microplate reader (Tecan), and OD600 and red fluorescence were measured after 20 h. A four-parameter non-linear regression model (curve fit) was used using Prism (GraphPad 5): Agonist concentration vs. response (variable slope). After analysis, EC50, basal activation, maximal activation and the Hill coefficient was extracted as previously described.
# [4] = target: T4, Gpe1N246L+N247L (Mycosarcoma maydis, UniProt A0A0D1E6B3, N246L/N247L); assay: Dose-response in yeast reporter assay, Gpe1 N246L+N247L; assay type: cell-based, Ustilago maydis; settings: Fig. 4e; receptor variant N246L+N247L
# T4 construct: expressed in transfected cells; host or cells: Saccharomyces cerevisiae reporter strain, plasmid pIL0350 (made from pIL0186)
# T4 sequence (A0A0D1E6B3 1-435 N246L/N247L): T1 sequence (A0A0D1E6B3 1-435 R133A) with A133R, N246L, N247L
# Protocol: as §1, §2, §3
# [5] = target: UhGpe1 (Ustilago hordei)
# [6] = target: G-protein-coupled receptor promoting fungal in planta expansion 1 (Gpe1) (Ustilago maydis)
# [7] = tested on: UmGpe1 (Gpe1, UMAG_01374); assay: GPCR activation assay in S. cerevisiae (yEmRFP reporter under FUS1 promoter), added protein/peptides; assay type: cell-based, Ustilago maydis
# From the text: To enable ligand identification, Gpe1 was then expressed in an engineered Saccharomyces cerevisiae strain to test receptor activation through production of a fluorescent reporter[22]. This strain is devoid of both endogenous mating GPCR genes (STE2 and STE3), all pheromone genes (MFA1/2 and MFALPHA1/MFALPHA2), BAR1, SST2 and FAR1[22]. And carries an unmodified version of ScGPA1, which is the homolog of U. maydis Gpa1[23]. The coupling of ScGPA1 with Gpe1, and later MAPK pathway activation, lead to the induction of a red fluorescent protein (yEmRFP) under control of the FUS1 promoter serves as readout.
# The activation assays for each GPCR were performed as previously described with slight modifications[22]. […] Experiments were performed in 96-well microtiter plates using a microplate reader (Tecan), and OD600 and red fluorescence were measured after 8 h. Experiments were run in triplicate.
# The mixture of tryptic-digested UmPit2 peptides were subjected to separation with a binary gradient of from 5 % to 95 % acetonitrile with a flowrate of 2 mL/min on an HPLC system (Agilent) for 60 min operated in a C-18 reverse phase column. The injection point was after 2 min and while the separation process was running, 2 mL sample was collected until fraction number 50. […]
# [8] = tested on: S. cerevisiae Ste2; assay: GPCR activation assay in S. cerevisiae, positive control; assay type: cell-based, Saccharomyces cerevisiae; settings: 10 µM α-factor, full agonist positive control; set to 100 %
# From the text: Three extra- and intracellular loops connect the TMs, with the N-terminal 35 residues and the 38 residues of the second extracellular loop (ECL2) forming an extracellular extension (Fig. 1b). ECL2 is also predicted to be connected to TM3 via a disulfide bond formed by Cys178 and Cys108 (Fig. 1b), a hallmark of many rhodopsin-class GPCRs[21]. To enable ligand identification, Gpe1 was then expressed in an engineered Saccharomyces cerevisiae strain to test receptor activation through production of a fluorescent reporter. This strain is devoid of both endogenous mating GPCR genes (STE2 and STE3), all pheromone genes (MFA1/2 and MFALPHA1/MFALPHA2), BAR1, SST2 and FAR1[22]. And carries an unmodified version of ScGPA1, which is the homolog of U. maydis Gpa1[23]. The coupling of ScGPA1 with Gpe1, and later MAPK pathway activation, lead to the induction of a red fluorescent protein (yEmRFP) under control of the FUS1 promoter serves as readout. Western blot analysis confirmed expression of Gpe1 in S. cerevisiae (Supplementary Fig.1b).
# The activation assays for each GPCR were performed as previously described with slight modifications. […] Experiments were performed in 96-well microtiter plates using a microplate reader (Tecan), and OD600 and red fluorescence were measured after 8 h. Experiments were run in triplicate.
compound,measurement,setting,value
CC(C)C[C@H](NC(=O)[C@H](CO)NC(=O)CNC(=O)[C@@H](NC(=O)[C@H](Cc1ccccc1)NC(=O)CNC(=O)[C@H](Cc1ccccc1)NC(=O)[C@H](Cc1c[nH]c2ccccc12)NC(=O)[C@@H](N)Cc1c[nH]c2ccccc12)[C@@H](C)O)C(=O)O [Pit2.5] (H-WWFGFTGSL-OH),EC50,[1],> 15 µM
same,EC50,[2],0.4 µM
same,EC50,[3],0.08 µM
same,EC50,[4],> 15 µM
CC(C)C[C@H](NC(=O)[C@H](CO)NC(=O)[C@H](CC(C)C)NC(=O)[C@@H](NC(=O)[C@H](Cc1ccccc1)NC(=O)CNC(=O)[C@H](Cc1ccccc1)NC(=O)[C@H](Cc1c[nH]c2ccccc12)NC(=O)[C@@H](N)Cc1c[nH]c2ccccc12)[C@@H](C)O)C(=O)O [pit2.17] (H-WWFGFTLSL-OH),EC50,[3],0.023 µM
AWFGFTGSL [pit2.13],Receptor activation in dose-response (in words),[3]; Fig. 2d,abolished receptor activation
Pit2.5 (…) (peptide),activation level (% activity) in the S. cerevisiae biosensor assay,[5],30%
same,"EC50 of the yEmRFP reporter in S. cerevisiae, dose response with synthetic peptide",[6],0.08 µM
Pit2.5-G07L (peptide),"EC50 of the yEmRFP reporter in S. cerevisiae, dose response with synthetic peptide; maximum fluorescence reduced",[6],0.023 µM
Pit2: purified recombinant U. maydis effector protein Pit2 (UMAG_01375) lacking its signal peptide,"Gpe1 activation level, fluorescence normalized to the Ste2 activation being 100 %","[7]; 100 µM purified full-length Pit2 lacking signal peptide, red fluorescence after 8 h, mean of three independent biological experiments",~ 25%
SrPit2 peptide,activation level (% activity) in the S. cerevisiae biosensor assay,[5],45%
WWFGFTGSLGK,Identification as Gpe1 agonist,[7]; peptide fractionation of tryptic Pit2 digest and mass spectrometry,Gpe1 agonist
α-factor,"Ste2 activation, fluorescence level (normalization reference)",[8],100%
